# Source: ChEMBL document CHEMBL1148415, “Effects of C2-alkylation, N-alkylation, and N,N'-dialkylation on the stability and estrogen receptor interaction of (4R,5S)/(4S,5R)-4,5-bis(4-hydroxyphenyl)-2-imidazolines” (J Med Chem, 2004)
# Columns and labels:
# [1] = Rate constant at 7.4 pH; type: ADME; conditions: pH 7.4
# [2] = Half life at 7.4 pH; type: ADME; conditions: pH 7.4
# Estrogen receptor = molecular target: T1, Estrogen receptor (Homo sapiens, UniProt P03372); test: Concentration required to activate luciferase expression in MCF-7-2a cells; type: functional, cell-based
# T1 sequence (P03372 whole entry): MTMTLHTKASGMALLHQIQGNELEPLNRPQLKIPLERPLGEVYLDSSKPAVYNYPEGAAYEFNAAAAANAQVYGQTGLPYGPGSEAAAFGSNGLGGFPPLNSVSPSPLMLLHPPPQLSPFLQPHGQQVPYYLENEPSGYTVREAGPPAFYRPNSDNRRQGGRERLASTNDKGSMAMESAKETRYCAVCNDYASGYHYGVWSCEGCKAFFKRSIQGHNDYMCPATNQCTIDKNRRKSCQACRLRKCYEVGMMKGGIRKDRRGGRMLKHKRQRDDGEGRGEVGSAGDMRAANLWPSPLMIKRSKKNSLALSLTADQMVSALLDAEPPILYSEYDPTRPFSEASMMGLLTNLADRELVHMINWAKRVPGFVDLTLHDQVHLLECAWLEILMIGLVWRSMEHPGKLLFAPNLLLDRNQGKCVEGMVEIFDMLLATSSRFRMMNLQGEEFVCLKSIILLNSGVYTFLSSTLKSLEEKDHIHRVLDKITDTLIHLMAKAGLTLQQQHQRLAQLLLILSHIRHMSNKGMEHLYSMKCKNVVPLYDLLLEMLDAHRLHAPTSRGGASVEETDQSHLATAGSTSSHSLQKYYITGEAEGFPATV
# [3] = Rate constant at 7.4 pH; No decomposition was observed within 55h; type: ADME; conditions: pH 7.4, 55 h
# [4] = Half life at 7.4 pH; No decomposition was observed within 55h; type: ADME; conditions: pH 7.4, 55 h
SMILES,k obs [1] [h⁻¹],half-life [2] [h],EC50 (Estrogen receptor) [nM],k obs [3],T1/2 [4]
Oc1ccc([C@H]2NC=N[C@H]2c2ccc(O)cc2Cl)c(Cl)c1,0.15,5.94,,,
CCCN1C=N[C@@H](c2ccc(O)cc2Cl)[C@H]1c1ccc(O)cc1Cl,,,150,,
N[C@H](c1ccc(O)cc1Cl)[C@@H](N)c1ccc(O)cc1Cl,,,1500,,
CCN1C=N[C@@H](c2ccc(O)cc2Cl)[C@H]1c1ccc(O)cc1Cl,0.004,154,15,,
N[C@H](c1ccc(O)cc1Cl)[C@@H](NC=O)c1ccc(O)cc1Cl,,,3000,,
CC1=N[C@@H](c2c(Cl)cc(O)cc2Cl)[C@@H](c2ccc(O)cc2Cl)N1,,,5000,,
Oc1ccc([C@H]2N=CN[C@H]2c2c(Cl)cc(O)cc2Cl)c(Cl)c1,0.052,13.4,65,,

# Next, values leading:
k obs [1] [h⁻¹],half-life [2] [h],EC50 (Estrogen receptor) [nM],k obs [3],T1/2 [4],SMILES
0.198,4.58,,,,COc1ccc([C@H]2N=CN[C@H]2c2ccc(OC)cc2Cl)c(Cl)c1
0.122,6.36,,,,Oc1ccc([C@H]2N=CN[C@H]2c2ccc(O)cc2)cc1
,,,Stable,Stable,OCCC1=N[C@H](c2ccc(O)cc2Cl)[C@H](c2ccc(O)cc2Cl)N1
,,500,Stable,Stable,CCN1C=[N+](CC)[C@@H](c2ccc(O)cc2Cl)[C@H]1c1ccc(O)cc1Cl
,,780,,,CN1C=[N+](C)[C@@H](c2ccc(O)cc2Cl)[C@H]1c1ccc(O)cc1Cl
,,300,,,CN1C=N[C@@H](c2ccc(O)cc2Cl)[C@H]1c1ccc(O)cc1Cl
